Experimental data: ChEMBL document CHEMBL1157191, “Syntheses and applications of fluorescent and biotinylated epolactaene derivatives: Epolactaene and its derivative induce disulfide formation” (Bioorg Med Chem, 2008)

Tested on: BALL-1
Assay: cytotoxicity against human BALL1 cells by MTT assay
Format: functional, cell-based

Compound	IC50 [µM]
C\C=C(/C=C(C)/C=C/CC/C=C(\C)C(=O)[C@]12O[C@H]1C(C)(O)NC2=O)C(=O)OC (some centres undefined) [EPOLACTAENE]	3.82
CC1(O)NC(=O)[C@@]2(C(=O)CCCCCCCCCCCNC(=O)CCCC[C@@H]3SC[C@@H]4NC(=O)N[C@@H]43)O[C@@H]12 (some centres undefined)	48.3
CCCCCCCCCCCC(=O)[C@]12O[C@H]1C(C)(O)NC2=O (some centres undefined)	1.65
CCN(CC)c1ccc2cc(NC(=O)OCCCCCCCCCCCC(=O)[C@]34O[C@H]3C(C)(O)NC4=O)c(=O)oc2c1 (some centres undefined)	1.56
